Assays:
human DNA topo IIα = target: T1, human DNA topo IIα (Homo sapiens, UniProt P11388); experiment: Topoisomerase IIα catalytic activity (pHOT1 DNA relaxation); assay type: biochemical; conditions: 100 µM, 4 units enzyme, 37°C 30 min
T1 construct: purchased TopoGEN, Inc., Columbus, OH, USA
Method: The topo IIα catalytic activity was monitored via electrophoresis using topoisomerase II drug screening kit (TopoGEN, Inc., Columbus, OH, USA). Briefly, 20 µL of reaction mixtures contained 0.5 M Tris-HCl, pH 8.0, 1.5 M NaCl, 100 mM MgCl2, 20 mM ATP, 300 µg BSA/mL and 5 mM dithiothreitol. Supercoiled DNA (pHOT1 DNA), supercoiled provided in the kit was determined to be ideal for this assay because it is small and easy to handle and has a large number of topo IIα recognition elements. […] The reaction was terminated by adding 2 µL of 10% sodium dodecyl sulfate (SDS) followed by digestion with 2 µL of proteinase K (50 µg/mL) at 37°C for 15 min to degrade enzyme. After adding 2 µL of loading buffer (0.25% bromophenol blue and 50% glycerol) was added to the mixture, samples were loaded onto 1% agarose gel. Electrophoresis was conducted at 66 V (2 V/cm) for 5 h in TBE buffer using Biorad Electrophoretic Gel System (Bio-Rad, Hercules, CA, USA). Supercoiled DNA (pHOT1 DNA) and relaxed DNA were included in the electrophoresis run as markers for DNA topology. Gels were then stained in 0.5 µg/mL gel red in TBE for 30 min and destained for 15 min in distilled water prior to digital image acquisition using Gel Doc 100 system (Bio-Rad, Hercules, CA, USA).
One unit of topoisomerase II activity was defined as the minimum amount of enzyme required to achieve complete relaxation of […] superhelical pHOT1 DNA in 30 min at 37°C. […] The percent of inhibition was calculated by the following formula: [drawing 1] Where Scontrol is the percent of supercoiled DNA in the control lane (without enzyme and test compounds), S0 is the percent of supercoiled DNA in the lane without test compounds and S is the percent of supercoiled DNA in the lane with test compounds and enzyme.

MDA-MB-231 cells = experiment: MTS cell proliferation assay, MDA-MB-231; assay type: cell-based, human; conditions: Homo sapiens, MTS
Method: (§1) Cell viability was determined by using the MTS assay. In brief, HepG2 cells (5×10^3 cells/100 µL/well), MDA-MB-231 (5×10^3 cells/100 µL/well), THP-1 (25×10^3/100 µL/well), normal human and rat hepatocytes (1×10^4 cells/100 µL/well) were plated in triplicate, in a 96 well sterile flat bottom tissue culture plates. […] Thereby, cells were exposed to various concentrations (0.1, 1, 10, 25, 50, 75, 100 µM) of each treatment. Controls consist of cells with media containing DMSO (<0.5%), test blank wells contained the test compound in media with no cells and blank wells contained media with no cells. After additional 3, 6, 12, 18 or 24 h, 20 µL of the MTS reagent in combination with the electron coupling agent, phenazine methosulfate were added to the wells and cells were incubated in a humidified incubator for 3 h. Absorbance at 490 nm (OD490) was measured by using a Flurostar Optima microplate reader (BMG Labtech, Cary, NC, USA) to obtain the number of viable cells relative to the control population. Percentage of viability of the test compound treated cells are expressed as percentage compared to control (<0.5% DMSO). […] The selective index (SI) of the fatty acid esters of phloridzin is defined as the ratio of cytotoxicity (EC50 values) on normal HP-F cells to solid cancer HepG2, MDA-MB-231 cells (SI = EC50 on HP-F cells/EC50 on solid cancer cells). Samples with SI values greater than three were considered to have high selectivity towards cancer cells.

HepG2 cells [1] = experiment: Annexin V/7-AAD apoptosis/necrosis fluorescence microscopy; assay type: cell-based, human; conditions: HepG2, 100 µM, 24 h
Method: HepG2 cells were seeded into Nunc Lab-Tek two chamber slide (Sigma-Aldrich Canada) at a density of 1×10^6 cells/chamber. […] The slides were washed with diluted phosphate buffered saline. After removing the chamber, each slide was added with 50 µL of Dual Detection Reagent containing apoptosis detection reagent (Annexin V-EnzoGold) and necrosis detection reagent (7-AAD) in 1X binding buffer. The samples were incubated at room temperature for 15 min in the dark. After staining, the cells were washed with binding buffer and covered with a glass coverslip. The stained cells were observed under a fluorescence Zeiss Axiovert 200 m inverted microscope (Carl Zeiss, Toronto, ON, Canada) at magnification of ×40 with a filter set for Annexin V-EnzoGold (Ex/Em: 550/570 nm) and 7-AAD (Ex/Em: 546/647 nm).

HepG2 cells [2] = experiment: MTS cell proliferation assay, HepG2; assay type: cell-based, human; conditions: Homo sapiens, MTS
Method: as §1

[3] = test system: caspase 3 activity of HepG2 cells; experiment: Caspase-3 colorimetric activity assay; assay type: cell-based, human; conditions: HepG2, 100 µM, 24 h, compared to DMSO control
Method: The activity of caspase 3 enzyme was measured using caspase 3 colorimetric assay kit purchased from Sigma-Aldrich. […] Cells were lysed and the protein content of cell lysate was quantified by the BCA protein assay (Thermo Fisher Scientific Inc., Ottawa, ON, Canada). Caspase-3 activity was measured in the 200 µg of cell lysate using the caspase-specific peptide substrate, DEVD (Asp-Glu-Val-Asp), conjugated to reporter p-nitroanaline (ρ-NA) molecules.

THP-1 cells = experiment: MTS cell proliferation assay, THP-1; assay type: cell-based, human; conditions: Homo sapiens, MTS
Method: as §1

T1 sequence (P11388 whole entry): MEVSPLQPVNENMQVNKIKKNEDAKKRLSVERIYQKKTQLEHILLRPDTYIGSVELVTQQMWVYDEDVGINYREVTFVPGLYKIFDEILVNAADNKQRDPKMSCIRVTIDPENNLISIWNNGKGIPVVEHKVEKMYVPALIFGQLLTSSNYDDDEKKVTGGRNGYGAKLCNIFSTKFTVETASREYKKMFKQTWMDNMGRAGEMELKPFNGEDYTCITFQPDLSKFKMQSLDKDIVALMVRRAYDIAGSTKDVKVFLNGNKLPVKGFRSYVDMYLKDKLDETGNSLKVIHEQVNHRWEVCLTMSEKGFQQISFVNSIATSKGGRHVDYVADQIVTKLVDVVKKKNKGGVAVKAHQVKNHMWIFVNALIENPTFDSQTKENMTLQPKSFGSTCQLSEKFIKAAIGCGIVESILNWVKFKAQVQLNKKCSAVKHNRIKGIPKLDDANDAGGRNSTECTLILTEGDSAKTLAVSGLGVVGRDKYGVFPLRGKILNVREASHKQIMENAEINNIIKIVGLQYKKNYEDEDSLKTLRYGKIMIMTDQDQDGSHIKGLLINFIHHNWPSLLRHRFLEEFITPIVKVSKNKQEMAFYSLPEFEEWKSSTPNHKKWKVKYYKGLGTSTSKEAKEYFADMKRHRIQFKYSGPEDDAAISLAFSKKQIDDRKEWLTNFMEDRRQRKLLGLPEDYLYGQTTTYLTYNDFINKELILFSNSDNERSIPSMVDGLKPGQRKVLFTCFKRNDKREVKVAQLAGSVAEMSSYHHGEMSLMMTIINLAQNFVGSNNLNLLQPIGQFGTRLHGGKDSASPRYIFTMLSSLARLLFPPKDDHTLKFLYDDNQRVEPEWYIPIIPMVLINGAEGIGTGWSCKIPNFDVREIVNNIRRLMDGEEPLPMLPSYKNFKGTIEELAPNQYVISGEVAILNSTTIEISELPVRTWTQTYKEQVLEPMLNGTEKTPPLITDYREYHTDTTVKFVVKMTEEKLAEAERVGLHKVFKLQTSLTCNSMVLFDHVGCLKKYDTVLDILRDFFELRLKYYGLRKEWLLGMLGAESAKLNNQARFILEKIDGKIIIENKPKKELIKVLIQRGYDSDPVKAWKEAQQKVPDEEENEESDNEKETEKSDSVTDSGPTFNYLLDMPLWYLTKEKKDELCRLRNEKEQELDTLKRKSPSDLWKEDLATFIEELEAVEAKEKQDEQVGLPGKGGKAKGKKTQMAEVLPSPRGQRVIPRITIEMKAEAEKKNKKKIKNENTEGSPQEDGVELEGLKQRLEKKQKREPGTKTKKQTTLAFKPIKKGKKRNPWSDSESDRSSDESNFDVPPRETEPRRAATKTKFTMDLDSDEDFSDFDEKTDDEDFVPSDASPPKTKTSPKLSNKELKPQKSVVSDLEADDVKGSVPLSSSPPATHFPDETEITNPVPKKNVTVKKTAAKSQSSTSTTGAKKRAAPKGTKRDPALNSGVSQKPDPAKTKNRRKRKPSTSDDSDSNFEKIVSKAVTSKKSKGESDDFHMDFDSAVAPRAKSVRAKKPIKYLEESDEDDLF

| Compound | catalytic activity of human DNA topo IIα (pHOT DNA relaxation) (human DNA topo IIα) | EC50 (MDA-MB-231 cells; MDA-MB-231, 3 h) | EC50 (MDA-MB-231 cells; MDA-MB-231, 6 h) | EC50 (MDA-MB-231 cells; MDA-MB-231, 12 h) | EC50 (MDA-MB-231 cells; MDA-MB-231, 18 h) | EC50 (MDA-MB-231 cells; MDA-MB-231, 24 h) | apoptosis/necrosis by Annexin V/7-AAD staining (HepG2 cells [1]) | EC50 (HepG2 cells [2]; HepG2, 3 h) | EC50 (HepG2 cells [2]; HepG2, 6 h) | EC50 (HepG2 cells [2]; HepG2, 12 h) | EC50 (HepG2 cells [2]; HepG2, 18 h) | EC50 (HepG2 cells [2]; HepG2, 24 h) | caspase 3 activity [3] | EC50 (THP-1 cells; THP-1, 3 h) | EC50 (THP-1 cells; THP-1, 6 h) | EC50 (THP-1 cells; THP-1, 12 h) | EC50 (THP-1 cells; THP-1, 18 h) | EC50 (THP-1 cells; THP-1, 24 h) |
| --- | --- | --- | --- | --- | --- | --- | --- | --- | --- | --- | --- | --- | --- | --- | --- | --- | --- | --- |
| O=C(CCc1ccc(O)cc1)c1c(O)cc(O)cc1O [Phloretin] | inhibited catalytic activity | > 100 µM | > 100 µM | > 100 µM | > 100 µM | > 100 µM | less apoptotic death of cells | > 100 µM | > 100 µM | > 100 µM | > 100 µM | 97.2 µM | enhanced caspase 3 activity but significantly (P<0.001) lower than fatty acid esters of phloridzin or the drug | 73.5 ± 5.2 µM | 64.1 ± 5.4 µM | 60.1 ± 4.2 µM | 56.9 ± 3 µM | 39.6 ± 1.7 µM |
| O=C(CCc1ccc(O)cc1)c1c(O)cc(O)cc1O[C@@H]1O[C@H](CO)[C@@H](O)[C@H](O)[C@H]1O [Phloridzin, phloretin 2′-O-glucoside] | inhibited catalytic activity | > 100 µM | > 100 µM | > 100 µM | > 100 µM | > 100 µM | less apoptotic death of cells | > 100 µM | > 100 µM | > 100 µM | > 100 µM | > 100 µM | enhanced caspase 3 activity but significantly (P<0.001) lower than fatty acid esters of phloridzin or the drug | > 100 µM | > 100 µM | > 100 µM | > 100 µM | > 100 µM |
